Laboratory results published in patent US20050215548A1 (Cyclacel Limited, priority 2002, published 2005).
Read-outs that look alike come from different tables or passages of the source. Each block holds one molecule with its values, some of them ahead of it.

Experiments:
AGS = assay: 72-h MTT cytotoxicity assay, AGS; type: cell-based; conditions: Homo sapiens
Method in brief: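 Cell-based anti-proliferative read-out. p53 and HDM2 status differ by line: AGS (gastric adenocarcinoma) wild-type p53; SJSA-1 (multipotential bone sarcoma) wild-type p53 plus HDM2 overexpression; H1299 (large cell lung carcinoma) p53 null, HDM2 low.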

[1] = tested on: non-transformed human cell lines; assay: 72-h MTT panel, average non-transformed; type: cell-based; conditions: average over non-transformed cell lines, read-out: Anti-proliferative activity, 72-h MTT IC50, Average non-transformed
Method: (§1) Representative bisarylsulfonamide compounds were tested on a panel of transformed and non-transformed human cell lines, using a standard 72-h MTT cytotoxicity assay [Haselsberger K et al, ibid].
This differential selectivity further supports the notion that the bisarylsulfonamides modulate cellular HDM2 function. It is known that HDM2 amplification is particularly common in soft tissue sarcomas and osteosarcomas [Momand J et al, ibid; Bartel F, Meye A, Wurl P, Kappler M, Bache M, Lautenschlager C, Grunbaum U, Schmidt H, Taubert H; Int. J. Cancer 2001; 95: 168-175].

Lovo = assay: 72-h MTT cytotoxicity assay, Lovo; type: cell-based; conditions: Homo sapiens, Colon adenocarcinoma, read-out: Anti-proliferative activity, 72-h MTT IC50
Method: as §1

NaCat = assay: 72-h MTT cytotoxicity assay, NaCat; type: cell-based; conditions: Keratinocyte, Human keratinocytes, read-out: Anti-proliferative activity, 72-h MTT IC50
Method: as §1

HCT116 = assay: 72-h MTT cytotoxicity assay, HCT116; type: cell-based; conditions: Homo sapiens, HCT-116, 72 h; HCT116, Colon carcinoma; read-out: Anti-proliferative activity, 72-h MTT IC50
Method: as §1

A549 = assay: 72-h MTT cytotoxicity assay, A549; type: cell-based; conditions: Homo sapiens, A549, Lung carcinoma, read-out: Anti-proliferative activity, 72-h MTT IC50
Method: as §1

Messa-Dx5 = assay: 72-h MTT cytotoxicity assay, Messa-Dx5; type: cell-based; conditions: Homo sapiens, MES-SA/Dx5, 72 h; Messa-Dx5, Uterus sarcoma; read-out: Anti-proliferative activity, 72-h MTT IC50
Method: as §1

WI38 = assay: 72-h MTT cytotoxicity assay, WI38; type: cell-based; conditions: Homo sapiens, WI-38, 72 h; WI38, Lung fibroblasts; read-out: Anti-proliferative activity, 72-h MTT IC50
Method: as §1

SJSA-1 = assay: Combination treatment with cisplatin or etoposide, MTT, SJSA-1; type: cell-based, human
Text: (§2) It is well established that radiotherapy and most current forms of chemotherapy cause extensive genetic damage and induction of the p53-dependent apoptotic pathway, which determines the important role of this tumor suppressor protein in cancer therapy. HDM2, on the other hand, as a transcriptional product and negative regulator pf p53, would destabilise p53 and diminish its pro-apoptotic function. Inhibitors of the p53-HDM2 negative feedback loop (e.g. compounds disrupting the p53-HDM2 complex) are expected to synergise with cytotoxic agents for induction of p53 and subsequent apoptosis. […] Both chemotherapeutic agents were used in the concentration range of 100-0.19 μM.

H1299 cells = assay: Caspase activity (casp ACE assay), H1299; type: cell-based, human; conditions: five times the IC50
Method: In more detail: (A) Cells were treated with […] [IC50] of compound 2 or cisplatinum and collected at the time points indicated. Cell lysates were prepared, the caspase activity was determined using the casp ACE assay and values were plotted on a graph. (B) Cells were treated with 5 times [IC50] of compound 2 or cisplatinum and collected at the time points indicated. AGS cells were also incubated with compound 2 in the presence of a caspase inhibitor Z-VAD.fmk. Cell lysates were prepared, the caspase activity was determined using the casp ACE assay and values were plotted on a graph.
To characterise the apoptosis-inducing properties of bisarylsulfonamides caspase ⅓ activty was measured. AGS or H1299 cells were treated with a low concentration of compound 2 or cisplatin corresponding to twice the IC50 value (FIG. 6A). Morphological changes were detected in 10-20% of cells by 72 hours corresponding to an induction of caspase activity first detected at 48 hours, increasing by 72 hours. We also treated AGS and H1299 cells with higher concentrations corresponding to five times the IC50 (FIG. 6B). In this experiment we included a […], Z-VAD.fmk to determine the caspase responsible.

H1299 = assay: Combination treatment with cisplatin or etoposide, MTT, H1299; type: cell-based, human
Text: as §2

[2] = 72-h MTT, Table 1, read-out: IC50 Anti-proliferative effect on cell line AGS
[3] = 72 h, Gastric adenocarcinoma, Table 2, read-out: Anti-proliferative activity, 72-h MTT IC50
[4] = 2 added 6 hours before etoposide
[5] = 2 added prior to the treatment with cisplatin

Structure (SMILES): O=[N+]([O-])c1cc(S(=O)(=O)Nc2ccc(F)cc2)sc1Cl [Compound 3, 5-Chloro-4-nitrothiophene-2-sulfonic acid (4-fluorophenyl)amide]
IC50 (AGS; [2]): 1.5 ± 0.3 µM | IC50 (AGS; [3]): 1.7 µM | IC50 [1]: 18.7 ± 3.1 µM | IC50 (Lovo): 2.3 µM | IC50 (NaCat): 10.5 µM | IC50 (HCT116): 3.5 µM | IC50 (A549): 5.9 µM | IC50 (Messa-Dx5): 12.1 µM | IC50 (WI38): 21.1 µM

IC50 of etoposide, fold lower in cells pre-treated with 2 (SJSA-1; [4]): 726 fold | IC50 (SJSA-1; Homo sapiens, MTT, 72 hours, Table 5, read-out: IC50, agent alone): 14 µM | IC50 of etoposide, fold lower in cells pre-treated with 2 (H1299; [4]): 25 fold | IC50 (H1299; Homo sapiens, NCI-H1299, MTT, 72 hours, Table 5, read-out: IC50, agent alone): 5.1 µM
Structure (SMILES): O=[N+]([O-])c1cc(S(=O)(=O)Nc2ccc(Cl)cc2)sc1Cl [Compound 2, 5-Chloro-4-nitrothiophene-2-sulfonic acid (4-chlorophenyl)-amide]
potency increase of cisplatin (SJSA-1; [5]): 357 fold | IC50 (AGS; [2]): 1.1 ± 0.2 µM | IC50 (AGS; [3]): 1.2 µM | IC50 (AGS; Example 9, read-out: anti-proliferative IC50 concentration determined for each cell line): 1 µM | caspase activity (H1299 cells): detected by four hours | IC50 [1]: 21 ± 3.1 µM | IC50 (Lovo): 2.1 µM | IC50 (NaCat): 9.3 µM | potency increase of cisplatin (H1299; [5]): 16 fold | IC50 (HCT116): 2.8 µM | IC50 (A549): 5.2 µM | IC50 (Messa-Dx5): 9.5 µM | IC50 (WI38): 22.7 µM

Structure (SMILES): O=[N+]([O-])c1cc(S(=O)(=O)Nc2ccc(C(F)(F)F)cc2)sc1Cl [Compound 6, 5-Chloro-4-nitrothiophene-2-sulfonic acid (4-trifluoromethylphenyl)amide]
IC50 (AGS; [2]): 2 ± 0.3 µM | IC50 (AGS; [3]): 2.2 µM | IC50 [1]: 27.1 ± 4.9 µM | IC50 (Lovo): 3.9 µM | IC50 (NaCat): 10.6 µM | IC50 (HCT116): 6 µM | IC50 (A549): 10 µM | IC50 (Messa-Dx5): 15.5 µM | IC50 (WI38): 30 µM
